l = locked nucleic acid (LNA); d = 2'-deoxy (DNA)
Assays:
Assay type in all cases: cell-based, human
[1] = test system: hCD39 protein; experiment: Concentration- and time-dependent hCD39 protein knockdown in HDLM-2 cells (flow cytometry); conditions: for Inhibition [%] (Protein/mRNA): HDLM-2, CD39 protein
Description: FIG. 8 depicts concentration- and time-dependent CD39 protein knockdown by A04040H (SEQ ID No. 3) and A04045H (SEQ ID No. 4). Analysis of CD39 protein expression by flow cytometry in HDML-2 cells is given after treatment with the indicated antisense oligonucleotides for 3, 4 and 6 days. As treatment control, cells were treated with neg1 for 3, 4 and 6 days at the indicated concentrations. Relative expression compared to untreated control cells (=1) is depicted.
(§1) HDLM-2 cells were therefore treated with different concentrations of the respective antisense oligonucleotide for three, four and six days, respectively. Protein expression was analyzed by flow cytometry using the CD39 antibody (clone A1) and 7-AAD to investigate viability. […] Table 13summarizes protein knockdown efficiency of the selected human CD39 antisense oligonucleotides A04040H (SEQ ID No. 3) and A04045H (SEQ ID No. 4) in HDLM-2 cells at different time points: […]

[2] = test system: hCD39 mRNA; experiment: IC50 determination / concentration-dependent hCD39 mRNA knockdown in HDLM-2 cells; conditions: for mRNA inhibition: HDLM-2, 3 days, Table 8
Procedure, shortened: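 Antisense oligonucleotides applied to HDLM-2 cells for 3 days, titrated 10 μM down to 4.5 nM. hCD39 mRNA normalized to HPRT1 and expressed as residual level relative to untreated cells (100); mean of triplicates, IC50 from concentration-response.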

[3] = test system: hCD39 mRNA; experiment: hCD39 mRNA knockdown efficacy screen in A-172 cells (single dose, gymnotic delivery, QuantiGene Singleplex); conditions: 10 μM, 3 days, normalized to HPRT1
Procedure, shortened: (§2)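 Antisense oligonucleotides given once at 10 μM without transfection reagent (gymnotic) to HDLM-2 or A-172 cells for 3 days. hCD39 mRNA measured by QuantiGene Singleplex, normalized to HPRT1 and expressed relative to untreated cells; triplicate means.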

[4] = test system: hCD39 mRNA; experiment: hCD39 mRNA knockdown efficacy screen in HDLM-2 cells (single dose, gymnotic delivery, QuantiGene Singleplex); parameters: key to Relative hCD39 mRNA expression (compared to non-treated cells): *: values are below detection limit; conditions: 10 μM, 3 days
Procedure, shortened: as §2

[5] = test system: HDLM-2 cells; experiment: Viability of HDLM-2 cells (7-AAD, flow cytometry); conditions: three, four and six days, different concentrations
Description: as §1

+C*+A*+C*T*T*A*C*G*T*T*C*A*C*T*+A*+C*+C (antisense CACTTACGTTCACTACC; sugars from the 5' end l3 d11 l3, all phosphorothioate, methylation of C not given here) [A04045H]
Inhibition [%] (Protein/mRNA) ([1]; Day 3, 0.1 μM): 38.81%
Inhibition [%] (Protein/mRNA) ([1]; Day 3, 0.5 μM): 50.37%
Inhibition [%] (Protein/mRNA) ([1]; Day 3, 1 μM): 51.53%
Inhibition [%] (Protein/mRNA) ([1]; Day 3, 10 μM): 54.88%
Inhibition [%] (Protein/mRNA) ([1]; Day 4, 0.1 μM): 61.88%
Inhibition [%] (Protein/mRNA) ([1]; Day 4, 0.5 μM): 73.20%
Inhibition [%] (Protein/mRNA) ([1]; Day 4, 1 μM): 75.55%
Inhibition [%] (Protein/mRNA) ([1]; Day 4, 10 μM): 78.72%
Inhibition [%] (Protein/mRNA) ([1]; Day 6, 0.1 μM): 80.24%
Inhibition [%] (Protein/mRNA) ([1]; Day 6, 0.5 μM): 89.53%
Inhibition [%] (Protein/mRNA) ([1]; Day 6, 1 μM): 90.46%
Inhibition [%] (Protein/mRNA) ([1]; Day 6, 10 μM): 94.06%
inhibition of hCD39 protein ([1]; HDLM-2 cells, three, four and six days, different concentrations): potent inhibition of hCD39 protein after all indicated time points
mRNA inhibition ([2]; 0.0045 μM): 30.70%
mRNA inhibition ([2]; 0.013 μM): 33.03%
mRNA inhibition ([2]; 0.04 μM): 54.20%
mRNA inhibition ([2]; 0.12 μM): 73.62%
mRNA inhibition ([2]; 0.4 μM): 87.63%
mRNA inhibition ([2]; 1.1 μM): 95.07%
mRNA inhibition ([2]; 3.3 μM): 97.44%
mRNA inhibition ([2]; 10 μM): 99.19%
maximal target inhibition (hCD39 mRNA) ([2]; HDLM-2 cells, compared to untreated cells, first IC50 determination): 99.2%
IC50 ([2]; HDLM-2 cells, hCD39 mRNA, 3 days, first screening round (Table 8)): 66.8 nM
Mean hCD39 mRNA expression (relative to untreated cells set as 1) ([3]; first screening round): 0.16
Relative hCD39 mRNA expression (compared to non-treated cells) ([3]; second screening round): 0.08
Mean hCD39 mRNA expression normalized to HPRT1 relative to untreated control = 1 ([4]; first screening round): 0.09
Relative hCD39 mRNA expression (compared to non-treated cells) ([4]; second screening round, normalized to HPRT1): *
viability of HDLM-2 cells [5]: did not affect viability

From US11959083B2, “Immunosuppression-reverting oligonucleotides inhibiting the expression of CD39” (Secarna Pharmaceuticals GmbH & Co. KG, priority 2016, dated 2024)
